According to patent US20160346412A1, “A KIT FOR PREPARING A RADIOPHARMACEUTICAL” (THE SOUTH AFRICAN NUCLEAR ENERGY CORPORATION LIMITED, priority 2014, published 2016):

Assays:
[1] = aqueous medium in the published syntheses; cited from earlier work
[2] = Stability of the ligand in water; format: physicochemical; settings: free ligand versus metal-chelated ligand
Experimental: The production of kits of ECDG, a water labile ligand, is problematic as the normal kit procedure includes a lyophilisation step in the aqueous phase wherein the pure ligand active pharmaceutical ingredient (API) is dissolved in water/saline containing at least one each of a reducing agent, additive and buffer, distributed in vials and freeze dried. At the hospital the ^99mTc in saline is added to the kit and reconstituted. The ^99mTc is then chelated to the ECDG ligand and the ^99mTc-ECDG radiopharmaceutical is ready for injection.

## O=C(NC1C(O)O[C@H](CO)[C@@H](O)[C@@H]1O)C(CS)NCCN[C@@H](CS)C(=O)NC1C(O)O[C@H](CO)[C@@H](O)[C@@H]1O (stereo partly drawn) [ECDG, ethylenedicysteine deoxyglucosamine]
[1]
  sensitivity to air, light, water and temperature: air, light, water and temperature sensitive
[2]
  stability in water: breaks down in water almost immediately

## O=C(NC1C(O)O[C@H](CO)[C@@H](O)[C@@H]1O)C1C[S][Tc]23(=[O])[S]C[C@@H](C(=O)NC4C(O)O[C@H](CO)[C@@H](O)[C@@H]4O)[N]2CC[N]13 (stereo partly drawn) [^99mTc-ECDG, ^99mTechnetium-ethylenedicysteine deoxyglucosamine]
[2]
  stability in water: stable in water
